According to the NIST ThermoML archive (doi:10.1021/acs.jced.5b00662):
Several values for one entry are separate records, joined by “and”; a condition that tells them apart may be missing. Equal values may be shown once. ± gives the expanded uncertainty stated by the source.

conditions: 283.15 K; 101.33 kPa; Liquid; Sing-around technique in a fixed-path interferometer

Compound | speed of sound
COCCOCCOCCOCCOC [2,5,8,11,14-pentaoxapentadecane] | 1439.7 ± 1.6 m/s
COCCOCCO [2-(2-methoxyethoxy)ethanol] | 1467.7 ± 1.6 m/s
OCCO [1,2-ethanediol] | 1689.9 ± 1.3 m/s
OCCOCCO [diethylene glycol] | 1615.9 ± 1.6 m/s

Results, then the compound that gave them:

speed of sound | Compound
1401.4 ± 1.6 m/s | COCCOCCOCCOC [2,5,8,11-tetraoxadodecane]
1340.7 ± 2 m/s | COCCOCCOC [2,5,8-trioxanonane]

same assay, conditions: 283.15 K; 101.33 kPa; Liquid; Vibrating tube method

Compound | mass density
COCCOCCOCCOCCOC [2,5,8,11,14-pentaoxapentadecane] | 1020.7 ± 2 kg/m3
COCCOCCO [2-(2-methoxyethoxy)ethanol] | 1028.6 ± 2 kg/m3
OCCO [1,2-ethanediol] | 1120.2 ± 1 kg/m3
OCCOCCO [diethylene glycol] | 1123.3 ± 2 kg/m3

Second part, the compound after the results:

mass density | Compound
994.1 ± 2 kg/m3 | COCCOCCOCCOC [2,5,8,11-tetraoxadodecane]
953.7 ± 1.1 kg/m3 | COCCOCCOC [2,5,8-trioxanonane]

same assay, conditions: 288.15 K; 101.33 kPa; Liquid; Concentric cylinders viscometry

Compound | viscosity
COCCOCCOCCOCCOC [2,5,8,11,14-pentaoxapentadecane] | 4.337 ± 0.18 mPa·s
COCCOCCO [2-(2-methoxyethoxy)ethanol] | 4.514 ± 0.18 mPa·s
OCCO [1,2-ethanediol] | 26.8 ± 1.1 mPa·s
OCCOCCO [diethylene glycol] | 47.14 ± 1.9 mPa·s

Other lines, results leading:

viscosity | Compound
2.414 ± 0.098 mPa·s | COCCOCCOCCOC [2,5,8,11-tetraoxadodecane]
1.161 ± 0.048 mPa·s | COCCOCCOC [2,5,8-trioxanonane]

same assay, conditions: 288.15 K; 101.33 kPa; Liquid; Sing-around technique in a fixed-path interferometer

Compound | speed of sound
COCCOCCOCCOCCOC [2,5,8,11,14-pentaoxapentadecane] | 1420.3 ± 1.6 m/s
COCCOCCO [2-(2-methoxyethoxy)ethanol] | 1450.2 ± 1.6 m/s
OCCO [1,2-ethanediol] | 1678.3 ± 1.3 m/s
OCCOCCO [diethylene glycol] | 1603.6 ± 1.6 m/s

Other lines, results leading:

speed of sound | Compound
1381.4 ± 1.6 m/s | COCCOCCOCCOC [2,5,8,11-tetraoxadodecane]
1320 ± 2 m/s | COCCOCCOC [2,5,8-trioxanonane]

same assay, conditions: 288.15 K; 101.33 kPa; Liquid; Vibrating tube method

Compound | mass density
COCCOCCOCCOCCOC [2,5,8,11,14-pentaoxapentadecane] | 1017 ± 2 kg/m3 and 1016.1 ± 2 kg/m3
COCCOCCO [2-(2-methoxyethoxy)ethanol] | 1025.3 ± 2 kg/m3 and 1024.2 ± 2 kg/m3
OCCO [1,2-ethanediol] | 1118.2 ± 1 kg/m3
OCCOCCO [diethylene glycol] | 1121.4 ± 2 kg/m3 and 1119.8 ± 2 kg/m3

Results, then the compound that gave them:

mass density | Compound
990.8 ± 2 kg/m3 and 989.4 ± 2 kg/m3 | COCCOCCOCCOC [2,5,8,11-tetraoxadodecane]
950.2 ± 1.1 kg/m3 and 948.7 ± 1.1 kg/m3 | COCCOCCOC [2,5,8-trioxanonane]

same assay, conditions: 293.15 K; 101.33 kPa; Liquid; Concentric cylinders viscometry

Compound | viscosity
COCCOCCOCCOCCOC [2,5,8,11,14-pentaoxapentadecane] | 3.846 ± 0.16 mPa·s
COCCOCCO [2-(2-methoxyethoxy)ethanol] | 3.963 ± 0.16 mPa·s
OCCO [1,2-ethanediol] | 21.2 ± 0.85 mPa·s
OCCOCCO [diethylene glycol] | 36.02 ± 1.5 mPa·s

Further lines, results first:

viscosity | Compound
2.162 ± 0.088 mPa·s | COCCOCCOCCOC [2,5,8,11-tetraoxadodecane]
1.081 ± 0.045 mPa·s | COCCOCCOC [2,5,8-trioxanonane]

same assay, conditions: 293.15 K; 101.33 kPa; Liquid; Sing-around technique in a fixed-path interferometer

Compound | speed of sound
COCCOCCOCCOCCOC [2,5,8,11,14-pentaoxapentadecane] | 1401 ± 1.6 m/s
COCCOCCO [2-(2-methoxyethoxy)ethanol] | 1432.7 ± 1.6 m/s
OCCO [1,2-ethanediol] | 1666.5 ± 1.3 m/s
OCCOCCO [diethylene glycol] | 1591.4 ± 1.6 m/s

More lines, now with the values ahead:

speed of sound | Compound
1361.6 ± 1.5 m/s | COCCOCCOCCOC [2,5,8,11-tetraoxadodecane]
1299.9 ± 2 m/s | COCCOCCOC [2,5,8-trioxanonane]

same assay, conditions: 293.15 K; 101.33 kPa; Liquid; Vibrating tube method

Compound | mass density
COCCOCCOCCOCCOC [2,5,8,11,14-pentaoxapentadecane] | 1012.3 ± 2 kg/m3 and 1011.5 ± 2 kg/m3
COCCOCCO [2-(2-methoxyethoxy)ethanol] | 1021 ± 2 kg/m3 and 1019.8 ± 2 kg/m3
OCCO [1,2-ethanediol] | 1114.6 ± 1 kg/m3 and 1113.3 ± 1 kg/m3
OCCOCCO [diethylene glycol] | 1117.8 ± 2 kg/m3 and 1116.2 ± 2 kg/m3

More lines, now with the values ahead:

mass density | Compound
986 ± 2 kg/m3 and 984.6 ± 2 kg/m3 | COCCOCCOCCOC [2,5,8,11-tetraoxadodecane]
945.2 ± 1.1 kg/m3 and 943.8 ± 1.1 kg/m3 | COCCOCCOC [2,5,8-trioxanonane]

same assay, conditions: 298.15 K; 101.33 kPa; Liquid; Concentric cylinders viscometry

Compound | viscosity
COCCOCCOCCOCCOC [2,5,8,11,14-pentaoxapentadecane] | 3.335 ± 0.14 mPa·s
COCCOCCO [2-(2-methoxyethoxy)ethanol] | 3.403 ± 0.14 mPa·s
OCCO [1,2-ethanediol] | 17.13 ± 0.69 mPa·s
OCCOCCO [diethylene glycol] | 28.23 ± 1.1 mPa·s

Continued, values first:

viscosity | Compound
1.956 ± 0.079 mPa·s | COCCOCCOCCOC [2,5,8,11-tetraoxadodecane]
1.011 ± 0.042 mPa·s | COCCOCCOC [2,5,8-trioxanonane]

same assay, conditions: 298.15 K; 101.33 kPa; Liquid; Sing-around technique in a fixed-path interferometer

Compound | speed of sound
COCCOCCOCCOCCOC [2,5,8,11,14-pentaoxapentadecane] | 1382 ± 1.6 m/s
COCCOCCO [2-(2-methoxyethoxy)ethanol] | 1415.4 ± 1.6 m/s
OCCO [1,2-ethanediol] | 1654.7 ± 1.3 m/s
OCCOCCO [diethylene glycol] | 1579.2 ± 1.6 m/s

Results, then the compound that gave them:

speed of sound | Compound
1342.1 ± 1.5 m/s | COCCOCCOCCOC [2,5,8,11-tetraoxadodecane]
1280 ± 2 m/s | COCCOCCOC [2,5,8-trioxanonane]

same assay, conditions: 298.15 K; 101.33 kPa; Liquid; Vibrating tube method

Compound | mass density
COCCOCCOCCOCCOC [2,5,8,11,14-pentaoxapentadecane] | 1006.8 ± 2 kg/m3 and 1007.6 ± 2 kg/m3
COCCOCCO [2-(2-methoxyethoxy)ethanol] | 1015.4 ± 2 kg/m3 and 1016.3 ± 2 kg/m3
OCCO [1,2-ethanediol] | 1111.1 ± 1 kg/m3
OCCOCCO [diethylene glycol] | 1112.7 ± 2 kg/m3 and 1114.2 ± 2 kg/m3

Continued, values first:

mass density | Compound
979.9 ± 2 kg/m3 and 981.5 ± 2 kg/m3 | COCCOCCOCCOC [2,5,8,11-tetraoxadodecane]
938.8 ± 1.1 kg/m3 and 940.2 ± 1.1 kg/m3 | COCCOCCOC [2,5,8-trioxanonane]

same assay, conditions: 303.15 K; 101.33 kPa; Liquid; Concentric cylinders viscometry

Compound | viscosity
COCCOCCOCCOCCOC [2,5,8,11,14-pentaoxapentadecane] | 2.967 ± 0.12 mPa·s
COCCOCCO [2-(2-methoxyethoxy)ethanol] | 3 ± 0.12 mPa·s
OCCO [1,2-ethanediol] | 14 ± 0.56 mPa·s
OCCOCCO [diethylene glycol] | 22.48 ± 0.91 mPa·s

Next, values leading:

viscosity | Compound
1.777 ± 0.072 mPa·s | COCCOCCOCCOC [2,5,8,11-tetraoxadodecane]
0.942 ± 0.039 mPa·s | COCCOCCOC [2,5,8-trioxanonane]

same assay, conditions: 303.15 K; 101.33 kPa; Liquid; Sing-around technique in a fixed-path interferometer

Compound | speed of sound
COCCOCCOCCOCCOC [2,5,8,11,14-pentaoxapentadecane] | 1363.1 ± 1.5 m/s
COCCOCCO [2-(2-methoxyethoxy)ethanol] | 1398.1 ± 1.6 m/s
OCCO [1,2-ethanediol] | 1642.9 ± 1.3 m/s
OCCOCCO [diethylene glycol] | 1566.9 ± 1.6 m/s

Other lines, results leading:

speed of sound | Compound
1322.8 ± 1.5 m/s | COCCOCCOCCOC [2,5,8,11-tetraoxadodecane]
1260.1 ± 2 m/s | COCCOCCOC [2,5,8-trioxanonane]

same assay, conditions: 303.15 K; 101.33 kPa; Liquid; Vibrating tube method

Compound | mass density
COCCOCCOCCOCCOC [2,5,8,11,14-pentaoxapentadecane] | 1002.2 ± 2 kg/m3 and 1003.1 ± 2 kg/m3
COCCOCCO [2-(2-methoxyethoxy)ethanol] | 1011 ± 2 kg/m3 and 1011.9 ± 2 kg/m3
OCCO [1,2-ethanediol] | 1106.3 ± 1 kg/m3 and 1107.6 ± 1 kg/m3
OCCOCCO [diethylene glycol] | 1109.1 ± 2 kg/m3 and 1110.6 ± 2 kg/m3

More lines, now with the values ahead:

mass density | Compound
975.1 ± 2 kg/m3 and 976.7 ± 2 kg/m3 | COCCOCCOCCOC [2,5,8,11-tetraoxadodecane]
933.8 ± 1.1 kg/m3 and 935.2 ± 1.1 kg/m3 | COCCOCCOC [2,5,8-trioxanonane]

same assay, conditions: 308.15 K; 101.33 kPa; Liquid; Concentric cylinders viscometry

Compound | viscosity
COCCOCCOCCOCCOC [2,5,8,11,14-pentaoxapentadecane] | 2.66 ± 0.11 mPa·s
COCCOCCO [2-(2-methoxyethoxy)ethanol] | 2.666 ± 0.11 mPa·s
OCCO [1,2-ethanediol] | 11.58 ± 0.47 mPa·s
OCCOCCO [diethylene glycol] | 18.18 ± 0.74 mPa·s

Now from value to compound:

viscosity | Compound
1.623 ± 0.066 mPa·s | COCCOCCOCCOC [2,5,8,11-tetraoxadodecane]
0.879 ± 0.036 mPa·s | COCCOCCOC [2,5,8-trioxanonane]

same assay, conditions: 308.15 K; 101.33 kPa; Liquid; Sing-around technique in a fixed-path interferometer

Compound | speed of sound
COCCOCCOCCOCCOC [2,5,8,11,14-pentaoxapentadecane] | 1344.3 ± 1.5 m/s
COCCOCCO [2-(2-methoxyethoxy)ethanol] | 1380.9 ± 1.6 m/s
OCCO [1,2-ethanediol] | 1631.1 ± 1.3 m/s
OCCOCCO [diethylene glycol] | 1554.9 ± 1.6 m/s

Other lines, results leading:

speed of sound | Compound
1303.6 ± 1.5 m/s | COCCOCCOCCOC [2,5,8,11-tetraoxadodecane]
1240.3 ± 2 m/s | COCCOCCOC [2,5,8-trioxanonane]

same assay, conditions: 308.15 K; 101.33 kPa; Liquid; Vibrating tube method

mass density | Compound
997.6 ± 2 kg/m3 and 998.8 ± 2 kg/m3 | COCCOCCOCCOCCOC [2,5,8,11,14-pentaoxapentadecane]
970.4 ± 2 kg/m3 and 971.9 ± 2 kg/m3 | COCCOCCOCCOC [2,5,8,11-tetraoxadodecane]

Compound | mass density
COCCOCCO [2-(2-methoxyethoxy)ethanol] | 1006.6 ± 2 kg/m3 and 1007.4 ± 2 kg/m3
